Values quoted from earlier work in patent EP1982712A1 (priority 2005, dated 2007).

Settings: for Clearance (route of elimination) / distribution volumes / time to reach the maximum concentration: in vivo; for time to reach the maximum concentration: po

Structure (SMILES) | Clearance (route of elimination) | distribution volumes | time to reach the maximum concentration | bioavailability (after oral administration)
OC(Cn1cncn1)(Cn1cncn1)c1ccc(F)cc1F [fluconazole, Fluconazole] | eliminated in a higher proportion in urine | 0.7 to 1 L/kg | two | –
CCC(C)n1ncn(-c2ccc(N3CCN(c4ccc(OCC5COC(Cn6cncn6)(c6ccc(Cl)cc6Cl)O5)cc4)CC3)cc2)c1=O (stereo not shown) [itraconazole, Itraconazole] | cleared mainly through hepatic metabolism | about 10.7 l/kg | up to four | about 50%
